In PMC12846815, “Structural basis for iterative methylation by a cobalamin-dependent radical S-adenosylmethionine enzyme in cystobactamids biosynthesis” (Proceedings of the National Academy of Sciences of the …, 2026):

How the values were obtained:
ccCysS [1] = biological target: T1, ccCysS (Corallococcus sp. CA054B, UniProt A0A3A8HCN5); test: X-ray crystal structure, […] Å; assay type: binding; conditions: active site, one conformer; with Met, 5′dA, Cbl and [Fe4S4]; anoxic, pH 6.0
T1 construct: gene D7V80_23740; codon-optimised gene in pSUMO, N-terminal SUMO tag cleaved with Ulp1; E. coli BL21(DE3) with pDB1282 and pBAD42-BtuCEDFB; monomer; TLS groups span residues 5 to 704
T1 sequence (A0A3A8HCN5 1-645): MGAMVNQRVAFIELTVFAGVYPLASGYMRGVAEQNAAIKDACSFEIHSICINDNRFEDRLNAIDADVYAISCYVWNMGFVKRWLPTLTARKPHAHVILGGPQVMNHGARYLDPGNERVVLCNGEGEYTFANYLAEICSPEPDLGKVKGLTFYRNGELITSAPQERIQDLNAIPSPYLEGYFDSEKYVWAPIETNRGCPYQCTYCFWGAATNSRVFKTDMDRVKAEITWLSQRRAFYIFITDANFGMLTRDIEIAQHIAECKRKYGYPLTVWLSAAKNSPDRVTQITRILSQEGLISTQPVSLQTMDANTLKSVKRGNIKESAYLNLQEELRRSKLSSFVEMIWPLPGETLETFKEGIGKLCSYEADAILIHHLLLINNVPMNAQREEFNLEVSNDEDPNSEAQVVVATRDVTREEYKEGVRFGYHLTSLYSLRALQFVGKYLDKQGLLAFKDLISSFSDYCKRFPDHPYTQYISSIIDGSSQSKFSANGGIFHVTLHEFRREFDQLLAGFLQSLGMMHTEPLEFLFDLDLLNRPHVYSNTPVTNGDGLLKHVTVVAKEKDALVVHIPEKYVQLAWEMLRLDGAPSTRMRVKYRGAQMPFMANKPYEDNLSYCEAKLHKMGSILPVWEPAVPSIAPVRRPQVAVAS

ccCysS [2] = biological target: T1, ccCysS; test: X-ray crystal structure, […] Å; assay type: binding; conditions: active site, two conformers; with Met, 5′dA, Cbl and [Fe4S4]; anoxic, pH 6.0
ccCysS [3] = biological target: T2, ccCysS (Corallococcus sp. CA054B, UniProt A0A3A8HCN5, W271A); test: LC-MS product quantification; assay type: biochemical; conditions: 500 µM SAM, 2 mM Ti(III) citrate, pH 7.5, room temperature
T2 construct: gene D7V80_23740; codon-optimised gene in pSUMO, N-terminal SUMO tag cleaved with Ulp1; E. coli BL21(DE3) with pDB1282 and pBAD42-BtuCEDFB; monomer; TLS groups span residues 5 to 704
T2 sequence (A0A3A8HCN5 1-645 W271A): T1 sequence (A0A3A8HCN5 1-645)

cbCysS = biological target: T3, cbCysS (Cystobacter sp. Cbv34, UniProt A0A0H4NV78); test: LC-MS product quantification; assay type: biochemical; conditions: 500 µM SAM, 2 mM Ti(III) citrate, pH 7.5, room temperature
T3 construct: gene cysS; codon-optimised gene in pSUMO, N-terminal SUMO tag cleaved with Ulp1; E. coli BL21(DE3) with pDB1282 and pBAD42-BtuCEDFB; monomer
T3 sequence (A0A0H4NV78 1-642): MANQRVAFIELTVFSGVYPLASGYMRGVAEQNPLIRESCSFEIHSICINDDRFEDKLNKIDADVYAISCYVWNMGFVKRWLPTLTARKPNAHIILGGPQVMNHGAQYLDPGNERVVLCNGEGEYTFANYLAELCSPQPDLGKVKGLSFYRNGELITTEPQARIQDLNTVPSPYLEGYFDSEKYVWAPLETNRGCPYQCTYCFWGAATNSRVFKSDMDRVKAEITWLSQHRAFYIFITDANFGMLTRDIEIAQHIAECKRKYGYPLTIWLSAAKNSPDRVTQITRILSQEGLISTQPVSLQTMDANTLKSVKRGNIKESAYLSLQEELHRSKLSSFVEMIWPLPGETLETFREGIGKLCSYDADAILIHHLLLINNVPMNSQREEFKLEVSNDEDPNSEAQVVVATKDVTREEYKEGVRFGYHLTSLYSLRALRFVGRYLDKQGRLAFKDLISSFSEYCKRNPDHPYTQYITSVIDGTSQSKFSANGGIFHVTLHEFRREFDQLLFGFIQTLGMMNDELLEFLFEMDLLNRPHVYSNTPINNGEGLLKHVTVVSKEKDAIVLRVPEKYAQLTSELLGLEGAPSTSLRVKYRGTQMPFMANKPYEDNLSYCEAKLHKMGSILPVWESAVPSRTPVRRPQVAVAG

ccCysS [4] = biological target: T1, ccCysS; test: LC-MS product quantification; assay type: biochemical; conditions: 500 µM SAM, 2 mM Ti(III) citrate, pH 7.5, room temperature
ccCysS [5] = biological target: T4, ccCysS (Corallococcus sp. CA054B, UniProt A0A3A8HCN5, F485L); test: LC-MS product quantification; assay type: biochemical; conditions: 500 µM SAM, 2 mM Ti(III) citrate, pH 7.5, room temperature
T4 construct: gene D7V80_23740; codon-optimised gene in pSUMO, N-terminal SUMO tag cleaved with Ulp1; E. coli BL21(DE3) with pDB1282 and pBAD42-BtuCEDFB; monomer; TLS groups span residues 5 to 704
T4 sequence (A0A3A8HCN5 1-645 F485L): T1 sequence (A0A3A8HCN5 1-645)

ccCysS [6] = biological target: T5, ccCysS (Corallococcus sp. CA054B, UniProt A0A3A8HCN5, F485W); test: LC-MS product quantification; assay type: biochemical; conditions: 500 µM SAM, 2 mM Ti(III) citrate, pH 7.5, room temperature
T5 construct: gene D7V80_23740; codon-optimised gene in pSUMO, N-terminal SUMO tag cleaved with Ulp1; E. coli BL21(DE3) with pDB1282 and pBAD42-BtuCEDFB; monomer; TLS groups span residues 5 to 704
T5 sequence (A0A3A8HCN5 1-645 F485W): T1 sequence (A0A3A8HCN5 1-645)

ccCysS [7] = biological target: T6, ccCysS (Corallococcus sp. CA054B, UniProt A0A3A8HCN5, F485Y); test: LC-MS product quantification; assay type: biochemical; conditions: 500 µM SAM, 2 mM Ti(III) citrate, pH 7.5, room temperature
T6 construct: gene D7V80_23740; codon-optimised gene in pSUMO, N-terminal SUMO tag cleaved with Ulp1; E. coli BL21(DE3) with pDB1282 and pBAD42-BtuCEDFB; monomer; TLS groups span residues 5 to 704
T6 sequence (A0A3A8HCN5 1-645 F485Y): T1 sequence (A0A3A8HCN5 1-645)

Compound | X-ray crystal structure, 2.00 Å (ccCysS [1]) | X-ray crystal structure, 1.75 Å (ccCysS [2]) | LC-MS product quantification (ccCysS [3]) | LC-MS product quantification (cbCysS) | LC-MS product quantification (ccCysS [4]) | LC-MS product quantification (ccCysS [5]) | LC-MS product quantification (ccCysS [6]) | LC-MS product quantification (ccCysS [7])
CCOc1cc(C(=O)OCCNC(=O)CCNC(=O)[C@H](O)C(C)(C)CO)ccc1N [OEt, OEt substrate] | Structures with the OMe or OEt substrates have well-defined substrate electron densities | – | – | – | – | – | – | –
COc1cc(C(=O)OCCNC(=O)CCNC(=O)[C@H](O)C(C)(C)CO)ccc1N [OMe, OMe substrate] | – | Structures with the OMe or OEt substrates have well-defined substrate electron densities | changed to Ala, the variant shows much lower activity across all three methylations | In reactions using the OMe substrate, only the OEt and O^iPr products are detected | – | – | – | –
CC(C)Oc1cc(C(=O)OCCNC(=O)CCNC(=O)[C@H](O)C(C)(C)CO)ccc1N [OiPr, O^iPr substrate] | – | – | – | The O^sBu and O^tBu products are observed only when starting from the O^iPr substrate | The O^sBu and O^tBu products are observed only when starting from the O^iPr substrate | The F485L variant, less bulky than wild-type (WT) ccCysS, produces methylated products in roughly equal amounts | F485Y and F485W yield fewer overall methylated products | F485Y and F485W yield fewer overall methylated products
